Measurements reported in patent publication US20090317372A1, “SMALL MOLECULES FOR THE REDUCTION OF HIGH BLOOD GLUCOSE LEVEL” (priority 2008, published 2009).

Legend:
Format in all cases: in vivo
[1] = tested on: C57/BL/6 mice; assay: Glucose tolerance test with normal mice, PALP and CCcompound1 combined
Method: Female C57/BL/6 mice weighing 24-26-g and fasted for 12 hours before i.p. glucose administration (3 g/kg) were used. None of the animals received any food during the experiment other than glucose. One group of animals was untreated while animals in other groups received subcutaneous (s.c.) injections of 2.0 or 4.5-mg/kg of CCcompound1 either 30 min or 60 min prior to glucose administration as indicated in TABLE 5. Two groups of animals received i.p. injections of 0.4-mg per mouse (˜16-mg per kg) of highly purified PALP 24 hours prior to glucose administration. Purification of PALP was described in detail earlier [Z. Kiss, U.S. Pat. No. 7,048,914, “Placental Alkaline Phosphatase to Control Diabetes]. Animals in one of the PALP treated group also received s.c. injections of 4.5-mg/kg of CCcompound1 30 min prior to glucose administration as indicated in TABLE 5. Blood samples were taken and glucose concentrations were immediately measured as described earlier. Each group included five animals. The data are the mean±std. dev. of 5 determinations, i.e. one determination with each of the five animals. “-min” and “-h” indicates the length of period in minutes and hours, respectively, elapsed between the administration of test agents (first) and glucose (second).

[2] = tested on: ob/ob mice; assay: Blood glucose in ob/ob mice, CCcompound1 combined with human proteins AGP and TF
Method: For each experimental group, ob/ob mice were chosen (5 mice in each group) that were 43 days old and weighed on average 40.3±1.9-g on the first day of experiment. Three groups of mice were treated with s.c. injection of 4.5-mg/kg CCcompound1 once every day for 17 days. Mice in one of these CCcompound1-treated groups received no other treatment, and their blood was drawn for glucose analysis on day 14 and 17 exactly 45 min after treatment. The second CCcompound1-treated group also received 0.5-mg/mouse (˜11 mg/kg) dose of greater than 98% pure commercial human transferrin [catalogue number, T 3309 according to 2004/2005 Sigma catalogue]. In this second group the blood was drawn on day 14 just prior to TF administration and on day 17 two hours after TF and 45 min after CCcompound1 administration. An additional group of animals received only TF treatment. The third CCcompound1-treated group also received 1.2-mg/mouse (26.6-mg/kg) dose of >99% pure human AGP [catalogue number G 9885 according to 2004/2005 Sigma catalogue]; in this group the blood was drawn on day 14 just prior to AGP administration and on day 17 two hours and 45 minutes after administration of AGP and CCcompound1, respectively. An additional group of animals received only AGP treatment, and yet another group of animals received no treatment at all. On day 1, prior to any treatment, the blood glucose level of all animals was in the range of 7.2-7.9 mM.

[3] = tested on: C57/BL/6 mice; assay: Glucose tolerance test with normal mice (CC1, CC3, CC19)
Method: C57/BL/6 female mice weighing 22-23-g and fasted for 14 hours before intraperitoneal (i.p.) administration of glucose (3-g/kg) were used. None of the animals received any food during the experiment other than glucose. The animals received i.p. injections of 4.5-mg/kg of CCcompound1, CCcompound3, or CCcompound19 either 1 hour or 24 hours prior to glucose administration as indicated in TABLE 3. Blood samples were taken from the eyes (canthus), and glucose concentrations in whole blood samples were immediately measured with the Fast Glucose C test. Each group included six animals. The data, shown in TABLE 3, are the mean±std. dev. of 6 determinations, i.e. one determination with each of the six animals. In this and all subsequent experiments the values at 0 min reflect glucose concentration in blood samples collected 1-5 minutes prior to the administration of glucose.

[4] = tested on: C57/BL/6 mice; assay: Glucose tolerance test with normal mice, dose and time dependence of CCcompound1
Method: Female C57/BL/6 mice weighing 22-23-g and fasted for 14 hours prior to i.p. glucose administration (3-g/kg) were used. None of the animals received any food during the experiment other than glucose. The animals received i.p. injections of 2.0 or 4.5-mg/kg of CCcompound1 either 30 min, 60 min or 120 min prior to glucose administration. Blood samples were taken and glucose concentrations were immediately measured as described earlier. Each group included six animals. The data are the mean±std. dev. of 6 determinations, i.e. one determination with each of the six animals. “-min” indicates the length of period in minutes elapsed between the administration of CCcompound1 (first) and glucose (second).

Structure (SMILES): Cc1c(OCC(O)C[N+](C)(C)C)cc2c(=O)c3ccccc3sc2c1C.[Cl-] (centres unmarked) [CCcompound 1, [3-(3,4-Dimethyl-9-oxo-9H-thioxanthen-2-yloxy)-2-hydroxypropyl]trimethyl-ammonium chloride]
- Blood glucose ([1]; CC1 2 mg/kg s.c. −30 min, 0 min): 3.7 ± 0.4 mM
- Blood glucose ([1]; CC1 2 mg/kg s.c. −30 min, 30 min): 6.6 ± 0.4 mM
- Blood glucose ([1]; CC1 2 mg/kg s.c. −30 min, 60 min): 4.9 ± 0.6 mM
- Blood glucose ([1]; CC1 2 mg/kg s.c. −30 min, 120 min): 4.4 ± 0.5 mM
- Blood glucose ([1]; CC1 2 mg/kg s.c. −60 min, 0 min): 3.9 ± 0.6 mM
- Blood glucose ([1]; CC1 2 mg/kg s.c. −60 min, 30 min): 6.7 ± 0.5 mM
- Blood glucose ([1]; CC1 2 mg/kg s.c. −60 min, 60 min): 5.2 ± 0.3 mM
- Blood glucose ([1]; CC1 2 mg/kg s.c. −60 min, 120 min): 4.6 ± 0.3 mM
- Blood glucose ([1]; CC1 4.5 mg/kg s.c. −30 min, 0 min): 3.6 ± 0.4 mM
- Blood glucose ([1]; CC1 4.5 mg/kg s.c. −30 min, 30 min): 6.2 ± 0.4 mM
- Blood glucose ([1]; CC1 4.5 mg/kg s.c. −30 min, 60 min): 4.5 ± 0.3 mM
- Blood glucose ([1]; CC1 4.5 mg/kg s.c. −30 min, 120 min): 4.2 ± 0.4 mM
- Blood glucose ([1]; CC1 4.5 mg/kg s.c. −60 min, 0 min): 3.8 ± 0.5 mM
- Blood glucose ([1]; CC1 4.5 mg/kg s.c. −60 min, 30 min): 6.4 ± 0.3 mM
- Blood glucose ([1]; CC1 4.5 mg/kg s.c. −60 min, 60 min): 4.5 ± 0.5 mM
- Blood glucose ([1]; CC1 4.5 mg/kg s.c. −60 min, 120 min): 4.1 ± 0.6 mM
- Blood glucose level ([2]; 14th day, CC1 4.5-mg/kg s.c. daily, 45 min after treatment, blood drawn just prior to AGP or TF administration): 10.9 ± 0.9 mM
- Blood glucose level ([2]; 17th day, 45 min after CC1 4.5-mg/kg s.c., two hours after TF 0.5-mg/mouse or AGP 1.2-mg/mouse): 11.4 ± 0.4 mM
- Blood glucose ([3]; 4.5-mg/kg i.p. 1 h prior to glucose 3-g/kg i.p., 0 min): 1.3 ± 0.3 mM
- Reduction of blood glucose level ([3]; 4.5-mg/kg i.p. 1 h prior to glucose, 30th min of test period): 33%
- Blood glucose ([3]; 4.5-mg/kg i.p. 1 h prior to glucose, 30 min): 5.4 ± 0.5 mM
- Blood glucose ([3]; 4.5-mg/kg i.p. 1 h prior to glucose, 60 min): 4.3 ± 0.4 mM
- Blood glucose ([3]; 4.5-mg/kg i.p. 1 h prior to glucose, 120 min): 2.8 ± 0.2 mM
- Blood glucose ([3]; 4.5-mg/kg i.p. 1 h prior to glucose, 180 min): 2.2 ± 0.2 mM
- Blood glucose ([3]; 4.5-mg/kg i.p. 24 h prior to glucose, 0 min): 1.4 ± 0.2 mM
- Blood glucose ([3]; 4.5-mg/kg i.p. 24 h prior to glucose, 30 min): 7.0 ± 0.7 mM
- Blood glucose ([3]; 4.5-mg/kg i.p. 24 h prior to glucose, 60 min): 5.2 ± 0.4 mM
- Blood glucose ([3]; 4.5-mg/kg i.p. 24 h prior to glucose, 120 min): 3.4 ± 0.3 mM
- Blood glucose ([3]; 4.5-mg/kg i.p. 24 h prior to glucose, 180 min): 2.8 ± 0.2 mM
- Glucose lowering effect ([3]; treatment 24 hours prior to glucose): smaller and not reproducible in additional experiments
- Blood glucose ([4]; 2 mg/kg i.p. −30 min, 0 min): 1.30 ± 0.20 mM
- Blood glucose ([4]; 2 mg/kg i.p. −30 min, 30 min): 5.40 ± 0.45 mM
- Blood glucose ([4]; 2 mg/kg i.p. −30 min, 60 min): 4.15 ± 0.45 mM
- Blood glucose ([4]; 2 mg/kg i.p. −30 min, 120 min): 3.50 ± 0.30 mM
- Blood glucose ([4]; 2 mg/kg i.p. −30 min, 180 min): 2.80 ± 0.30 mM
- Blood glucose ([4]; 2 mg/kg i.p. −60 min, 0 min): 1.30 ± 0.30 mM
- Blood glucose ([4]; 2 mg/kg i.p. −60 min, 30 min): 5.70 ± 0.35 mM
- Blood glucose ([4]; 2 mg/kg i.p. −60 min, 60 min): 4.30 ± 0.30 mM
- Blood glucose ([4]; 2 mg/kg i.p. −60 min, 120 min): 3.70 ± 0.30 mM
- Blood glucose ([4]; 2 mg/kg i.p. −60 min, 180 min): 3.25 ± 0.35 mM
- Blood glucose ([4]; 4.5 mg/kg i.p. −30 min, 0 min): 1.50 ± 0.25 mM
- Blood glucose ([4]; 4.5 mg/kg i.p. −30 min, 30 min): 5.05 ± 0.20 mM
- Blood glucose ([4]; 4.5 mg/kg i.p. −30 min, 60 min): 3.55 ± 0.25 mM
- Blood glucose ([4]; 4.5 mg/kg i.p. −30 min, 120 min): 2.95 ± 0.25 mM
- Blood glucose ([4]; 4.5 mg/kg i.p. −30 min, 180 min): 1.95 ± 0.30 mM
- Blood glucose ([4]; 4.5 mg/kg i.p. −60 min, 0 min): 1.40 ± 0.25 mM
- Blood glucose ([4]; 4.5 mg/kg i.p. −60 min, 30 min): 5.25 ± 0.30 mM
- Blood glucose ([4]; 4.5 mg/kg i.p. −60 min, 60 min): 3.90 ± 0.20 mM
- Blood glucose ([4]; 4.5 mg/kg i.p. −60 min, 120 min): 3.20 ± 0.15 mM
- Blood glucose ([4]; 4.5 mg/kg i.p. −60 min, 180 min): 2.85 ± 0.15 mM
- Blood glucose ([4]; 4.5 mg/kg i.p. −120 min, 0 min): 1.35 ± 0.15 mM
- Blood glucose ([4]; 4.5 mg/kg i.p. −120 min, 30 min): 7.80 ± 0.40 mM
- Blood glucose ([4]; 4.5 mg/kg i.p. −120 min, 60 min): 5.90 ± 0.45 mM
- Blood glucose ([4]; 4.5 mg/kg i.p. −120 min, 120 min): 4.30 ± 0.40 mM
- Blood glucose ([4]; 4.5 mg/kg i.p. −120 min, 180 min): 3.00 ± 0.20 mM
- Glucose lowering effect ([4]; administered 120 min prior to glucose): practically ineffective
